System: 287954-098-R-J1 tumor spheroid viability
Test: Anticancer human tumor 287954-098-R-J1 patient-derived Ewing sarcoma cell line growth inhibition
Details: spheroids with HUVEC and MSC; for IC50: curve of first compound; for viability, T/C: stronger effect = lower value
Excerpt: Multicellular complex tumor spheroid response to DNA repair inhibitors in combination with DNA-damaging drugs
This study explores the anticancer activities of DNA-damaging drugs and inhibitors of DNA damage repair, both as single agents and in combinations. Complex tumor spheroids comprised of malignant cells, endothelial cells and mesenchymal stem cells served as an in vitro model for human solid tumors. This model system incorporates physiologically relevant features and patient-derived or established malignant cell lines with clinically relevant genetic alterations from many tumor types. Twenty-six patient-derived or established malignant cell lines were evaluated representing sarcoma, melanoma, small cell lung cancer (SCLC), non-small cell lung cancer (NSCLC), as well as bladder, ovarian and pancreatic cancers. The concentration ranges selected for each drug and investigational agent were based upon clinically achievable concentrations if the clinical Cmax of the agent was known.
Compounds. The drugs and compounds olaparib (NSC753686), talazoparib (NSC767125), berzosertib (NSC777718), elimusertib (NSC800525), nedisertib (NSC802822), VX-984 (NSC792969), AZD-1390 (NSC803789), temozolomide (NSC362856), topotecan (NSC609699), trabectedin (NSC813783), staurosporine (NSC755774), and gemcitabine (NSC613327) were obtained from the National Cancer Institute (NCI) Developmental Therapeutics Program Chemical Repository. The FDA-approved anticancer drug set is available from the Developmental Therapeutics Program at https://dtp.cancer.gov/organization/dscb/obtaining/available_plates.htm. […] The stock solutions were prepared in dimethyl sulfoxide (DMSO, Sigma-Aldrich, St. Louis, MO, cat. D2650) at 400-fold the tested concentration and stored at -70 degrees C. Prior to their use, the stock solutions were diluted in fresh medium and the final DMSO concentration in the assay was 0.25% (v/v). All drugs and investigational agents were tested over a range starting from a high concentration at or near the clinical Cmax and decreasing in half-log increments. If the clinical Cmax for an agent had not been determined, the highest concentration tested was 10 microM.
Cell Lines. The patient-derived cancer cell (PDC) lines: 156681-154-R-J1-PDC, 283228-195-R-J1-PDC, 287954-098-R-J1-PDC, 292921-168-R-J2-PDC, 349418-098-R-PDC, 425362-245-T-J1-PDC, 556581-035-R-J1-PDC, and BL0293-F563-PDC were received from the NCI Patient-Derived Models Repository (PDMR, https://pdmr.cancer.gov). The established cell lines HS-SY-2 (RRID:CVCL_8719), MPNST, and SYO-1 (RRID:CVCL_7146) were obtained from the Sloan Kettering Institute. The alveolar soft parts sarcoma cell line ASPS-1 (RRID:CVCL_S738) was established at the NCI and grown from internal seed stocks. The following established cell lines were purchased from the American Type Culture Collection (ATCC, Manassas, VA): G-401 (ATCC, cat. CRL-1441, RRID:CVCL_0270), SW982 (ATCC, cat. HTB-93, RRID:CVCL_1734), VA-ES-BJ (ATCC, cat. CRL-2138, RRID:CVCL_1785), NCI-H719 (ATCC, cat. CRL-5837, RRID:CVCL_1582), NCI-H196 (ATCC, cat. CRL-5823, RRID:CVCL_1509), NCI-H841 (ATCC, cat. CRL-5845, RRID:CVCL_1595), NCI-H1618 (ATCC, cat. CRL-5879, RRID:CVCL_1480), NCI-H1876 (ATCC, cat. CRL-5902, RRID:CVCL_1503), DMS 114 (ATCC, cat. CRL-2066; RRID:CVCL_1174), NCI-H211 (ATCC, cat. CRL-5824; RRID:CVCL_1529), and SW 1271 (ATCC, cat. CRL-2177, RRID:CVCL_1716). The small cell lung cancer cell line COR-L88 was purchased from Sigma-Aldrich (cat. 92031917-1VL, RRID:CVCL_1141). The non-small cell lung cancer cell lines NCI-H226 (RRID:CVCL_1544) and NCI-H322M (RRID:CVCL_1557) were established at the NCI and grown from internal seed stocks. Pooled donor human umbilical vein endothelial cells (HUVEC, Lonza, cat. CC-2519) and human mesenchymal stem cells (hMSC, Lonza, cat. PT-2501) were purchased from Lonza (Walkersville, MD).
Cell Culture. All cells were maintained in an incubator at 37 degrees C and 5% CO2 with 95% humidity. […]
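Note: spheroids exposed to compound for 7 days before viability readout.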
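Throughout, for viability, T/C: luminescent signal taken as surrogate of viable cell content; 100% = DMSO vehicle control viability and lower means growth inhibition.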

Compound: CNCc1ccc(-c2cc(-c3nc(-c4ccc(S(=O)(=O)C(C)C)cc4)cnc3N)on2)cc1 + CC[C@@]1(O)C(=O)OCc2c1cc1n(c2=O)Cc2cc3c(CN(C)C)c(O)ccc3nc2-1
- IC50 (second compound 0.003 µM): 198 nM
- IC50 (second compound 0.00949 µM): 158 nM
- IC50 (second compound 0.03 µM): < 9.49 nM
- IC50 (second compound 0.0949 µM): < 9.49 nM
- IC50 (second compound 0.3 µM): < 9.49 nM
- viability, T/C (second compound 0.003 µM, first compound 0.00949 µM): 109%
- viability, T/C (second compound 0.003 µM, first compound 0.03 µM): 93.4%
- viability, T/C (second compound 0.003 µM, first compound 0.0949 µM): 108%
- viability, T/C (second compound 0.003 µM, first compound 0.3 µM): 19.7%
- viability, T/C (second compound 0.003 µM, first compound 0.949 µM): 0.19%
- viability, T/C (second compound 0.003 µM, first compound 3 µM): 0.31%
- viability, T/C (second compound 0.00949 µM, first compound 0.00949 µM): 103%
- viability, T/C (second compound 0.00949 µM, first compound 0.03 µM): 114%
- viability, T/C (second compound 0.00949 µM, first compound 0.0949 µM): 89.3%
- viability, T/C (second compound 0.00949 µM, first compound 0.3 µM): 0.67%
- viability, T/C (second compound 0.00949 µM, first compound 0.949 µM): 0.1%
- viability, T/C (second compound 0.00949 µM, first compound 3 µM): 0.26%
- viability, T/C (second compound 0.03 µM, first compound 0.00949 µM): 19.1%
- viability, T/C (second compound 0.03 µM, first compound 0.03 µM): 3.38%
- viability, T/C (second compound 0.03 µM, first compound 0.0949 µM): 2.05%
- viability, T/C (second compound 0.03 µM, first compound 0.3 µM): 0.64%
- viability, T/C (second compound 0.03 µM, first compound 0.949 µM): 0.05%
- viability, T/C (second compound 0.03 µM, first compound 3 µM): 0.26%
- viability, T/C (second compound 0.0949 µM, first compound 0.00949 µM): 2.1%
- viability, T/C (second compound 0.0949 µM, first compound 0.03 µM): 2.08%
- viability, T/C (second compound 0.0949 µM, first compound 0.0949 µM): 2.28%
- viability, T/C (second compound 0.0949 µM, first compound 0.3 µM): 0.97%
- viability, T/C (second compound 0.0949 µM, first compound 0.949 µM): 0.06%
- viability, T/C (second compound 0.0949 µM, first compound 3 µM): 0.3%
- viability, T/C (second compound 0.3 µM, first compound 0.00949 µM): 2.14%
- viability, T/C (second compound 0.3 µM, first compound 0.03 µM): 2.11%
- viability, T/C (second compound 0.3 µM, first compound 0.0949 µM): 2.27%
- viability, T/C (second compound 0.3 µM, first compound 0.3 µM): 1.94%
- viability, T/C (second compound 0.3 µM, first compound 0.949 µM): 0.24%
- viability, T/C (second compound 0.3 µM, first compound 3 µM): 0.43%

Compound: Cc1cc(C)c(CNC(=O)c2cc(-c3ccc(CN4CCOCC4)cc3)cc3c2cnn3C2CCCC2)c(=O)[nH]1 + Cn1nnc2c(C(N)=O)ncn2c1=O
- IC50 (second compound 1 µM): > 10000 nM
- IC50 (second compound 3.16 µM): > 10000 nM
- IC50 (second compound 10 µM): > 10000 nM
- IC50 (second compound 31.6 µM): > 10000 nM
- IC50 (second compound 100 µM): > 10000 nM
- viability, T/C (second compound 1 µM, first compound 0.0316 µM): 104%
- viability, T/C (second compound 1 µM, first compound 0.1 µM): 100%
- viability, T/C (second compound 1 µM, first compound 0.316 µM): 100%
- viability, T/C (second compound 1 µM, first compound 1 µM): 103%
- viability, T/C (second compound 1 µM, first compound 3.16 µM): 105%
- viability, T/C (second compound 1 µM, first compound 10 µM): 115%
- viability, T/C (second compound 3.16 µM, first compound 0.0316 µM): 105%
- viability, T/C (second compound 3.16 µM, first compound 0.1 µM): 107%
- viability, T/C (second compound 3.16 µM, first compound 0.316 µM): 100%
- viability, T/C (second compound 3.16 µM, first compound 1 µM): 108%
- viability, T/C (second compound 3.16 µM, first compound 3.16 µM): 107%
- viability, T/C (second compound 3.16 µM, first compound 10 µM): 108%
- viability, T/C (second compound 10 µM, first compound 0.0316 µM): 110%
- viability, T/C (second compound 10 µM, first compound 0.1 µM): 108%
- viability, T/C (second compound 10 µM, first compound 0.316 µM): 107%
- viability, T/C (second compound 10 µM, first compound 1 µM): 106%
- viability, T/C (second compound 10 µM, first compound 3.16 µM): 99.3%
- viability, T/C (second compound 10 µM, first compound 10 µM): 111%
- viability, T/C (second compound 31.6 µM, first compound 0.0316 µM): 108%
- viability, T/C (second compound 31.6 µM, first compound 0.1 µM): 117%
- viability, T/C (second compound 31.6 µM, first compound 0.316 µM): 109%
- viability, T/C (second compound 31.6 µM, first compound 1 µM): 105%
- viability, T/C (second compound 31.6 µM, first compound 3.16 µM): 108%
- viability, T/C (second compound 31.6 µM, first compound 10 µM): 105%
- viability, T/C (second compound 100 µM, first compound 0.0316 µM): 108%
- viability, T/C (second compound 100 µM, first compound 0.1 µM): 113%
- viability, T/C (second compound 100 µM, first compound 0.316 µM): 111%
- viability, T/C (second compound 100 µM, first compound 1 µM): 107%
- viability, T/C (second compound 100 µM, first compound 3.16 µM): 96.2%
- viability, T/C (second compound 100 µM, first compound 10 µM): 104%
